Assay results published in patent US6844182B2, “Mutants which produce a potentiator of bacillus pesticidal activity” (priority 1992, dated 2005).
Read-outs that look alike come from different tables or passages of the source.

Legend:
[1] = Stability of Ia (retention of activity); type: physicochemical
Protocol: Further, it is stable when subjected to direct sunlight for at least 10 hours. Ia is stable at a pH 2 for 3 days, but unstable at pH 12.

Spodoptera exigua = type: in vivo; set-up: key to Stunt Score: 4.0 = untreated control; 3.0 = 75% size of untreated control; 2.0 = 50% size of untreated control; 1.0 = 25% size of untreated control; 0.0 = no growth or size unchanged from start of experiment
Protocol: Activity is monitored by a Spodoptera exigua micro-bioassay, and purity is determined by capillary electrophoresis. […] The trays containing the various samples are air dried. Two to four 2nd or early 3rd instar Spodoptera exigua are added to the wells containing the dried sample. The wells are sealed with mylar poked with holes and are incubated for 2-3 days at 30° C. Degree of stunting and percent mortality are then recorded. Typically, 5 replicate wells are run for each sample.

Alternaria alternata = experiment: Fungal growth inhibition assay, Alternaria alternata; type: cell-based
Protocol: (§1) Mutants of the Bacillus thuringiensis subsp. kurstaki strain which produce the factor are identified using fungal agar plates of Septoria nodorum and Alternaria alternata.
(§2) The two fungi are grown on PDA (potato dextrose agar) plates at 26° C. for 10-14 days until sufficient sporulation is obtained. Alternaria alternata is incubated in alternating UV light and darkness (12 hrs. each). The spores are removed from the plates and suspended in sterile water. Septoria nodorum spores are filtered through a sterile G1 filter. The Alternaria alternata spore concentration is adjusted to approximately 2×10^5 per ml and the Septoria nodorum spore concentration is adjusted to approximately 2×10^6 per ml using a Burker-Turk or Fuchs-Rosenthal counter. Samples of 1.5 ml of the spore suspension are then mixed with 1.5 ml of sterile 40% glycerol in water, frozen for 1 day at −20° C. and thereafter stored at −80° C. until use.
(§3) Test plates for the factor are prepared by mixing at 46° C. a 1.5 ml spore sample (as described above) with 115 ml of antibiotic agar medium No. 2 (25.5 g per liter) comprising streptomycin at a final concentration of 100 μg per ml, and transferring the mixture to sterile plastic trays (Nunc No. 101875). After the agar has solidified, […] holes are punched into the agar (120 holes per tray).
(§4) Samples of a culture are serially diluted in 100 μg of streptomycn per ml of sterile water and 10 μl of the diluted samples are dispensed into the trays prepared as described above. The trays are incubated at 26° C. for 2 days. Dilutions of the factor are also run as a positive control.
(§5) The sensitivity of the fungal growth inhibition assay is in the range of 0.05 gram of the factor per liter (barely visible) and 0.1 gram of the factor per liter (clear zone) for both fungi.

Septoria nodorum = experiment: Fungal growth inhibition assay, Septoria nodorum; type: cell-based
Protocol: as §1, §2, §3, §4, §5

Solubility of Ia = type: physicochemical
Text: The active compound is found to be water soluble but is not soluble in organic solvents. […] A DEPT experiment determined that there are three quaternary carbons (C), seven methines (CH), three methylenes (CH2) and no methyl groups (CH3). Using proton coupling experiments such as 1-D decoupling and COSY, one large spin system containing eight carbons is identified. In addition, a smaller spin system consisting of two carbons is present. A carbon proton correlation experiment (HMBC) enabled assignment of each proton resonance in the molecule to its attached carbon.

Phytophthora medicaginis = details: U.S. Pat. Nos. 4,877,738 and 4,878,936; cited from earlier work

For `NC(=O)NCC(NC(=O)C(O)C(O)C(N)C(O)CC(O)C(N)CO)C(N)=O` (stereo not shown) [Ia], the stability upon autoclaving ([1]; autoclaving (>190° C.)) was “loses all activity”, the stability upon boiling ([1]; boiling for 5 minutes) was “stable” and the “time stable in direct sunlight” value ([1]; direct sunlight) was “at least 10 hours”. For the same compound, the “stability to periodic acid or concentrated HCl” value ([1]; exposed to periodic acid or concentrated HCl) was “lose all activity”, the “stability at pH 2” value ([1]; pH 2 for 3 days) was “stable” and the “stability at pH 12” value ([1]; pH 12) was “unstable”. The “Stunt Score” value (Spodoptera exigua; Ia + alone, Bt protein None) was 4.0, the “effect on activity of B.t. subsp. kurstaki and aizawai crystal delta-endotoxin pesticidal proteins toward Spodoptera exigua” value (Spodoptera exigua; regardless of the form of the pesticidal proteins) was “potentiate” and the “effect on fungal growth” value (Alternaria alternata; agar plates) was “inhibits growth”. For the same compound, the “concentration giving barely visible inhibition (assay sensitivity)” value (Alternaria alternata; barely visible, 26° C., 2 days) was 0.05 gram of the factor per liter, the “concentration giving clear zone (assay sensitivity)” value (Alternaria alternata; clear zone, 26° C., 2 days) was 0.1 gram of the factor per liter and the “effect on fungal growth” value (Septoria nodorum; agar plates) was “inhibits growth”. For the same compound, the “concentration giving barely visible inhibition (assay sensitivity)” value (Septoria nodorum; barely visible, 26° C., 2 days) was 0.05 gram of the factor per liter, the “concentration giving clear zone (assay sensitivity)” value (Septoria nodorum; clear zone, 26° C., 2 days) was 0.1 gram of the factor per liter and the “solubility in organic solvents” value (Solubility of Ia; organic solvents) was “not soluble”. For the same compound, the solubility in water (Solubility of Ia; water) was “water soluble”.
In the case of `NC(=O)NCC(NC(=O)C(O)C(O)C(N)C(O)CC(O)C(N)CO)C(N)=O` (stereo not shown) [zwittermicin A], the “effect on growth of the plant pathogen Phytophthora medicaginis” value (Phytophthora medicaginis) is listed as “inhibits the growth” and the “effect on infection of alfalfa” value (Phytophthora medicaginis) is listed as “reduces the infection”.
With “CryIA(c): Bacillus thuringiensis CryIA(c) delta-endotoxin protein purified from BIOBIT FC” the “Stunt Score” value (Spodoptera exigua; Bt protein 3 μg/ml, Ia +) was 1.0 (1.0 = 25% size of untreated control), the “Stunt Score” value (Spodoptera exigua; Bt protein 15 μg/ml, Ia +) was 0.0 and the “Stunt Score” value (Spodoptera exigua; Bt protein 30 μg/ml, Ia −) was 4.0. The “concentration with Ia producing the same insect mortality/stunt score as protein alone” value (Spodoptera exigua; full-length protein, equals 240 μg/ml of CryIA(c) alone) was 0.75 µg/mL, the “Stunt Score” value (Spodoptera exigua; purified truncated Bt protein OD280 0.0006, Ia +) was 1.0 (1.0 = 25% size of untreated control) and the “Stunt Score” value (Spodoptera exigua; purified truncated Bt protein OD280 0.0012, Ia +) was 1.0 (1.0 = 25% size of untreated control). The “Stunt Score” value (Spodoptera exigua; purified truncated Bt protein OD280 0.0025, Ia +) was 2.0 (2.0 = 50% size of untreated control), the “Stunt Score” value (Spodoptera exigua; purified truncated Bt protein OD280 0.005, Ia +) was 0.0 and the “Stunt Score” value (Spodoptera exigua; purified truncated Bt protein OD280 0.020, Ia +) was 0.0. The “OD280 in combination with Ia giving the same stunt score as protein alone” value (Spodoptera exigua; truncated protein, equals OD280 of 0.075 tested alone) was 0.0006 OD280.
